According to US20100144749A1, “TREATMENT OF CANCERS WITH ACQUIRED RESISTANCE TO KIT INHIBITORS” (priority 2005, published 2010):

Legend:
Type in all cases: cell-based, murine
[1] = system: Ba/F3 cells expressing human c-KIT with exon 11 deletion of residues 557-558; assay: Cell proliferation assay (CellTiter-Glo), Ba/F3 c-KIT exon 11 deletion mutant; settings: BaF3; Ba/F3, c-KIT exon 11 del 557-558; 72 h; dose range 0.6 to 10,000 nM; mean of at least three experiments; read-out: IC50 of cell proliferation inhibition, Exon 11 (WT)
Description: (§1) All mutations were confirmed by DNA sequencing.
(§2) Selective pressure was applied to the transfected cells by removing IL-3 from the culture medium. After IL-independent populations, further selective pressure was applied by also growing the cells in the presence of 1 mg/mL G418. […] The stable pools were further characterized by sequencing genomic DNA to confirm the presence of the transfected c-KIT cDNA.
(§3) This assay utilizes cellular ATP as a marker for cell proliferation/viability. […] Plates were then incubated in a 5% CO2 incubator at 37° C. for 3 days. After 72 h, 100 microliters of lysis/luciferase reagent (CellTiter-Glo, Promega G7573) was added to each well. The cells were then incubated on a shaker for 5 minutes at room temperature, and luminescence was measured on a Victor 5 (Perkin Elmer) spectrophotometer. Growth inhibition was measured by comparing luminescence signal from treated vs. untreated cells in assay plates, and the IC50 analysis of cell proliferation inhibition by compounds was analyzed using Analyze 5 in-house software. […] The IC50 values are mean values calculated from at least three experiments.

[2] = system: Ba/F3 cells expressing c-KIT Exon 11/V654A Gleevec-resistant double mutant; assay: Cell proliferation assay (CellTiter-Glo), Ba/F3 c-KIT exon 11/V654A; settings: Mus musculus, BaF3, 72 h, dose range 0.6 to 10,000 nM, mean of at least three experiments, read-out: IC50 of cell proliferation inhibition, Exon 11/Gleevec-resistant Double Mutant V654A
Description: as §1, §2, §3

[3] = system: Ba/F3 cells expressing c-KIT Exon 11/D816G Gleevec-resistant double mutant; assay: Cell proliferation assay (CellTiter-Glo), Ba/F3 c-KIT exon 11/D816G; settings: Mus musculus, BaF3, 72 h, dose range 0.6 to 10,000 nM, mean of at least three experiments, read-out: IC50 of cell proliferation inhibition, Exon 11/Gleevec-resistant Double Mutant D816G
Description: as §1, §2, §3

[4] = system: Ba/F3 cells expressing c-KIT Exon 11/N822K Gleevec-resistant double mutant; assay: Cell proliferation assay (CellTiter-Glo), Ba/F3 c-KIT exon 11/N822K; settings: Mus musculus, BaF3, 72 h, dose range 0.6 to 10,000 nM, mean of at least three experiments, read-out: IC50 of cell proliferation inhibition, Exon 11/Gleevec-resistant Double Mutant N822K
Description: as §1, §2, §3

[5] = system: Ba/F3 cells expressing c-KIT Exon 11/Y823D Gleevec-resistant double mutant; assay: Cell proliferation assay (CellTiter-Glo), Ba/F3 c-KIT exon 11/Y823D; settings: Mus musculus, BaF3, 72 h, dose range 0.6 to 10,000 nM, mean of at least three experiments, read-out: IC50 of cell proliferation inhibition, Exon 11/Gleevec-resistant Double Mutant Y823D
Description: as §1, §2, §3

[6] = system: c-KIT-expressing Ba/F3 cell lines, Gleevec-resistant double mutants versus Exon 11 mutant; assay: Potency shift caused by c-KIT resistance mutations (summary of Table 2); settings: double mutants relative to Exon 11 mutant, from Table 2
Description: as §1, §2, §3

CNC(=O)c1cc(Oc2ccc(NC(=O)Nc3ccc(Cl)c(C(F)(F)F)c3)cc2)ccn1 [BAY 43-9006, N-[4-chloro-3-(trifluoromethyl)phenyl]-N′-{4-[2-carbamoyl-1-oxo-(4-pyridyloxy)]phenyl} urea]
IC50 [1]: 3 nM | IC50 [2]: 46 nM | IC50 [3]: 8 nM | IC50 [4]: 17 nM | IC50 [5]: 36 nM | decrease of drug potency caused by c-KIT resistance mutations [6]: no more than 15 fold
